Target: T1, CFTR (Homo sapiens, UniProt P13569, DEL508-508)
T1 construct: Primary CF airway epithelial cells were obtained from the UNC Cystic Fibrosis Tissue Procurement and Cell Culture Core; host or cells: primary CF airway epithelial cells
Test: Equivalent current assay in Primary CF airway epithelial cells (NAUC)
Type: cell-based
Conditions: 24 h, normalized to VX809 (3 μM) positive control; for Nauc @ 3 μM: 3 μM test compound; for Nauc @ 10 μM: 10 μM test compound
Method in brief: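 Primary CF airway epithelia differentiated ≥4 weeks at air-liquid interface, treated basolaterally 24 h at 37 °C with test compounds in combination with VX809, 0.1% DMSO vehicle. Equivalent current recorded after 5 μM benzamil, 10 μM forskolin plus 1 μM VX770, then CFTR-172/bumetanide 20 μM; vehicle-subtracted AUC normalized to 3 μM VX809 (NAUC), median of n≥4, sigmoid fit for EC50.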

T1 sequence (P13569 with tags, fused parts or gaps DEL508-508): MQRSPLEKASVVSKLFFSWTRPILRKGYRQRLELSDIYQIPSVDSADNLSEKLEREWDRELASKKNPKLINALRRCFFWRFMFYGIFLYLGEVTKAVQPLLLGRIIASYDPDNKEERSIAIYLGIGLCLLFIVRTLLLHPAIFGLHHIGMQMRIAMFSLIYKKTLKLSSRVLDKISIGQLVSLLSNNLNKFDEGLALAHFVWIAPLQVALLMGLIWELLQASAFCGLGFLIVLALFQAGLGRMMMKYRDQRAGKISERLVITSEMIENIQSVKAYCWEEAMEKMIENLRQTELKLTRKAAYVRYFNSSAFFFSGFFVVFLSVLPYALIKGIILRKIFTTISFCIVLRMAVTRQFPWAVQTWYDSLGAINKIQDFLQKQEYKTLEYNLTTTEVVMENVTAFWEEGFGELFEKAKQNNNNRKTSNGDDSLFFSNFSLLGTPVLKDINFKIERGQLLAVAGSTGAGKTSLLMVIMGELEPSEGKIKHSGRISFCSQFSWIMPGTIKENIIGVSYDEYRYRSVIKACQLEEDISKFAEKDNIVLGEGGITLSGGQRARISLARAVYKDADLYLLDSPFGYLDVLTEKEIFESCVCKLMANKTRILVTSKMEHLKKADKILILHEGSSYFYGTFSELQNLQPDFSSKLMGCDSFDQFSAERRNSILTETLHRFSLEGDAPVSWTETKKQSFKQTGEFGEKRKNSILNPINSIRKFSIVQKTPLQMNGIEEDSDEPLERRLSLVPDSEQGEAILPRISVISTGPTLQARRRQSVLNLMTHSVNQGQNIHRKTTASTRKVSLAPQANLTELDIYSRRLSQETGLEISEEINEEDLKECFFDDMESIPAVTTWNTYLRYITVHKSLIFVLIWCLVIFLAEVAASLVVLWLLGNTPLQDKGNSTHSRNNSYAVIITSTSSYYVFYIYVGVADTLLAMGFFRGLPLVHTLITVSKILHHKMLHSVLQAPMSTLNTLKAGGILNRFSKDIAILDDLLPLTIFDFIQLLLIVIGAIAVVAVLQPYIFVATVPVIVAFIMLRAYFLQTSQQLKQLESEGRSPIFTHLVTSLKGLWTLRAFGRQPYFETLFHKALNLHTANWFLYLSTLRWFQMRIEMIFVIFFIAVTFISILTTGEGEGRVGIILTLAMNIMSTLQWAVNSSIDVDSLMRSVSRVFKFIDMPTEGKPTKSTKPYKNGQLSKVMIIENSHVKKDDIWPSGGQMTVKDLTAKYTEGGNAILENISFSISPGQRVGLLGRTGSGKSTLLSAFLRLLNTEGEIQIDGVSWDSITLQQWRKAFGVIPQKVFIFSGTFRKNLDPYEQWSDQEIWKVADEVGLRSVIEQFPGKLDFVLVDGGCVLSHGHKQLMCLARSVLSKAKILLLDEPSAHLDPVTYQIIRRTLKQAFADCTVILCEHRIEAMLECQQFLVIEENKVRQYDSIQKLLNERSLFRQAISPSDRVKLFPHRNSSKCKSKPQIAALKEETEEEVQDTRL

| Compound | Nauc @ 3 μM | Nauc @ 10 μM |
| --- | --- | --- |
| CC1(C)CC2C3C(=O)N(c4cc(Cl)c(OC(F)F)c(Cl)c4)C(=O)C3C3(C(=O)Nc4c(Cl)cc(Cl)cc43)N2C1 (single isomer, unassigned) [Example 255] | +++ (NAUC “+++” refers to an observed NAUC >170% of positive control) | +++ (NAUC “+++” refers to an observed NAUC >170% of positive control) |
| O=C1C2C3CCCN3C3(C(=O)Nc4c(Cl)cc(Cl)cc43)C2C(=O)N1c1cc(Cl)c(OC(F)F)c(Cl)c1 (centres unmarked) [Example 224] | +++ (NAUC “+++” refers to an observed NAUC >170% of positive control) | +++ (NAUC “+++” refers to an observed NAUC >170% of positive control) |
| C[C@@]1(O)CC2C3C(=O)N(c4cc(Cl)cc(Cl)n4)C(=O)C3C3(C(=O)Nc4c(Cl)cc(Cl)cc43)N2C1 (some centres unmarked) [Example 206] | ++ (NAUC “++” refers to an observed NAUC 170-140% of positive control) | +++ (NAUC “+++” refers to an observed NAUC >170% of positive control) |
| O=C1C2C3C[C@H](O)CN3C3(C(=O)Nc4ccc(C(F)(F)F)cc43)C2C(=O)N1c1cc(Cl)cc(Cl)c1 (some centres unmarked) [Example 42] | ++ (NAUC “++” refers to an observed NAUC 170-140% of positive control) | ++ (NAUC “++” refers to an observed NAUC 170-140% of positive control) |
| CC1(C)CC2C3C(=O)N(c4cc(Cl)cc(Cl)c4)C(=O)C3C3(C(=O)Nc4c(Cl)cc(Cl)cc43)N2C1 (centres unmarked) [Example 103] | ++ (NAUC “++” refers to an observed NAUC 170-140% of positive control) | +++ (NAUC “+++” refers to an observed NAUC >170% of positive control) |
| COC(=O)c1cccc(N2C(=O)C3C4CCCN4C4(C(=O)Nc5c(Cl)cc(Cl)cc54)C3C2=O)c1 (centres unmarked) [Example 66] | ++ (NAUC “++” refers to an observed NAUC 170-140% of positive control) | ++ (NAUC “++” refers to an observed NAUC 170-140% of positive control) |
| COc1cc(Cl)cc(N2C(=O)C3C4C[C@H](O)CN4C4(C(=O)Nc5c(Cl)cc(Cl)cc54)C3C2=O)c1 (single isomer, unassigned) [Example 115] | + (NAUC “+” refers to an observed NAUC <140% of positive control) | ++ (NAUC “++” refers to an observed NAUC 170-140% of positive control) |
| O=C1C2C3CCCN3C3(C(=O)Nc4c(Cl)cc(Cl)cc43)C2C(=O)N1c1nccs1 (centres unmarked) [Example 216] | ++ (NAUC “++” refers to an observed NAUC 170-140% of positive control) | + (NAUC “+” refers to an observed NAUC <140% of positive control) |
| CC(C)(C)NC(=O)N[C@H]1CC2C3C(=O)N(c4cc(Cl)cc(Cl)c4)C(=O)C3C3(C(=O)Nc4c(Cl)cc(Cl)cc43)N2C1 (some centres unmarked) [Example 153] | + (NAUC “+” refers to an observed NAUC <140% of positive control) | ++ (NAUC “++” refers to an observed NAUC 170-140% of positive control) |
| O=C1C2C3CC4(CN3C3(C(=O)Nc5c(Cl)cc(Cl)cc53)C2C(=O)N1c1cc(Cl)cc(Cl)c1)OCCO4 (centres unmarked) [Example 169] | + (NAUC “+” refers to an observed NAUC <140% of positive control) | ++ (NAUC “++” refers to an observed NAUC 170-140% of positive control) |
| C[C@]1(O)CC2C3C(=O)N(c4cc(Cl)c(OC(F)F)c(Cl)c4)C(=O)C3C3(C(=O)Nc4c(Cl)cc(Cl)cc43)N2C1 (some centres unmarked) [Example 226] | ++ (NAUC “++” refers to an observed NAUC 170-140% of positive control) | ++ (NAUC “++” refers to an observed NAUC 170-140% of positive control) |
| CC12C(=O)N(c3cc(Cl)cc(Cl)c3)C(=O)C1C1(C(=O)Nc3c(Cl)cc(Cl)cc31)N1CCCC12 (single isomer, unassigned) [Example 54] | ++ (NAUC “++” refers to an observed NAUC 170-140% of positive control) | + (NAUC “+” refers to an observed NAUC <140% of positive control) |
| Cc1ccc(CC2NC3(C(=O)Nc4c(Cl)cc(Cl)cc43)C3C(=O)N(c4cc(Cl)cc(Cl)c4)C(=O)C23)cc1 (centres unmarked) [Example 195] | + (NAUC “+” refers to an observed NAUC <140% of positive control) | ++ (NAUC “++” refers to an observed NAUC 170-140% of positive control) |
| O=C1C2C3CCCN3C3(C(=O)Nc4c(Cl)cc(Cl)cc43)C2C(=O)N1c1cccc(C(F)(F)F)c1 (centres unmarked) [Example 15] | ++ (NAUC “++” refers to an observed NAUC 170-140% of positive control) | +++ (NAUC “+++” refers to an observed NAUC >170% of positive control) |
| O=C1C2C3CCCN3C3(C(=O)Nc4c(Br)cc(Br)cc43)C2C(=O)N1c1cc(Cl)cc(Cl)c1 (centres unmarked) [Example 34] | +++ (NAUC “+++” refers to an observed NAUC >170% of positive control) | +++ (NAUC “+++” refers to an observed NAUC >170% of positive control) |
| COc1cc(Cl)cc(N2C(=O)C3C4C[C@H](Cl)CN4C4(C(=O)Nc5c(Cl)cc(Cl)cc54)C3C2=O)c1 (some centres unmarked) [Example 76] | +++ (NAUC “+++” refers to an observed NAUC >170% of positive control) | +++ (NAUC “+++” refers to an observed NAUC >170% of positive control) |
| COc1cccc(N2C(=O)C3C4CCCN4C4(C(=O)Nc5c(Cl)cc(Cl)cc54)C3C2=O)c1 (centres unmarked) [Example 97] | + (NAUC “+” refers to an observed NAUC <140% of positive control) | ++ (NAUC “++” refers to an observed NAUC 170-140% of positive control) |
| O=C1C2C3CCCN3C3(C(=O)Nc4c(Cl)cc(Cl)cc43)C2C(=O)N1c1cccc(Cl)c1 (centres unmarked) [Example 11] | + (NAUC “+” refers to an observed NAUC <140% of positive control) | +++ (NAUC “+++” refers to an observed NAUC >170% of positive control) |
| O=C1C2CN(C3CCCC3)C3(C(=O)Nc4c(Cl)cc(Cl)cc43)C2C(=O)N1c1cc(Cl)cc(Cl)c1 (centres unmarked) [Example 32] | ++ (NAUC “++” refers to an observed NAUC 170-140% of positive control) | +++ (NAUC “+++” refers to an observed NAUC >170% of positive control) |
| O=C1C2C3CC(=C(F)F)CN3C3(C(=O)Nc4c(Cl)cc(Cl)cc43)C2C(=O)N1c1cc(C(F)(F)F)cc(C(F)(F)F)c1 (centres unmarked) [Example 125] | +++ (NAUC “+++” refers to an observed NAUC >170% of positive control) | + (NAUC “+” refers to an observed NAUC <140% of positive control) |
| O=C1C2C3CC4(CC4)CN3C3(C(=O)Nc4c(Cl)cc(Cl)cc43)C2C(=O)N1c1cc(Cl)cc(Cl)n1 (single isomer, unassigned) [Example 218] | +++ (NAUC “+++” refers to an observed NAUC >170% of positive control) | +++ (NAUC “+++” refers to an observed NAUC >170% of positive control) |
| COc1cc(Cl)cc(N2C(=O)C3C4CC(C(F)F)CN4C4(C(=O)Nc5c(Cl)cc(Cl)cc54)C3C2=O)c1 (centres unmarked) [Example 130] | + (NAUC “+” refers to an observed NAUC <140% of positive control) | ++ (NAUC “++” refers to an observed NAUC 170-140% of positive control) |

— patent US10072017B2, “Compounds and methods for the treatment of cystic fibrosis” (Flatley Discovery Lab, LLC, priority 2015, dated 2018)
